US20230203060A1 (GENFLEET THERAPEUTICS (SHANGHAI) INC., priority 2020, published 2023)

Molecular target: T1, KRAS G12C (Homo sapiens, UniProt P01116, G12C)
T1 construct: purchased Reactionbiology
Assay: KRAS G12C NEA-HTRF experiment (SOS1-catalyzed displacement of GDP by GTP)
Type: biochemical
How it was run: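 His-tagged KRAS G12C preloaded with DY647-GDP was preincubated 15 min at 20 °C with compound, then exchanged with SOS1 (0.2 μM working solution) and GTP (200 μM working solution) for 2 h at 20 °C in the dark. HTRF 665/615 nm ratio with anti-His-Tb was normalised to T0 and no-compound controls; IC50 by four-parameter fit.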

T1 sequence (P01116 1-188 isoform P01116-2 G12C): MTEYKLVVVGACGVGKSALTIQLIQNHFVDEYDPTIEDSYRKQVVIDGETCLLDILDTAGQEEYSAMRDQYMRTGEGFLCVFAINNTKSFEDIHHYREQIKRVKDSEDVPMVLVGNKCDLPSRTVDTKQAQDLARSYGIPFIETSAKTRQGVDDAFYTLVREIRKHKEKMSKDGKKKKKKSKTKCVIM

| IC50 [nM] | SMILES |
| --- | --- |
| 13.9 | C=CC(=O)N1CCN2C(=O)c3c(N4CC(C(=O)O)CC4(C)C)nc(-c4c(O)cccc4F)c(Cl)c3OC[C@H]2C1 (stereo partly drawn) [Z458, 1-((6aR)-8-acryloyl-4-chloro-3-(2-fluoro-6-hydroxyphenyl)-12-oxo-6,6a,7,8,9,10-hexahydro-12H-pyrazino[2,1-c]pyrido[3,4-f][1,4]oxazepin-1-yl)-5,5-dimethylpyrrolidine-3-carboxylic acid] |
| 85 | C=CC(=O)N1CCN2C(=O)c3c(N4CCCC45CC5)nc(-c4c(O)cccc4F)c(Cl)c3OC[C@H]2C1 [Z56, (6aR)-8-acryloyl-4-chloro-3-(2-fluoro-6-hydroxyphenyl)-1-(4-azaspiro[2.4]heptan-4-yl)-6,6a,7,8,9,10-hexahydro-12H-pyrazino[2,1-c]pyrido[3,4-f][1,4]oxazepin-12-one] |
| 66 | C=CC(=O)N1CCN2C(=O)c3c(N4CCC[C@@H]4C)nc(-c4c(O)cccc4F)c(Cl)c3OC[C@H]2C1 [Z49, (6aR)-8-acryloyl-1-((S)-2-methylpyrrolidin-1-yl)-4-chloro-3-(2-fluoro-6-hydroxyphenyl)-6,6a,7,8,9,10-hexahydro-12H-pyrazino[2,1-c]pyrido[3,4-f][1,4]oxazepin-12-one] |
| 28.4 | C=CC(=O)N1CCN2C(=O)c3c(N4CC(N(C)CCO)CC4(C)C)nc(-c4ccccc4F)c(Cl)c3OC[C@H]2C1 (stereo partly drawn) [Z658, (6aR)-8-acryloyl-4-chloro-3-(2-fluorophenyl)-1-(4-((2-hydroxyethyl)(methyl)amino)-2,2-dimethylpyrrolidin-1-yl)-6,6a,7,8,9,10-hexahydro-12H-pyrazino[2,1-c]pyrido[3,4-f][1,4]oxazepin-12-one] |
| 176 | C=CC(=O)N1CCN2C(=O)c3c(N4CCN(C)C[C@@H]4C)nc(-c4c(N)cccc4F)c(Cl)c3OC[C@H]2C1 [Z503, (6aR)-8-acryloyl-3-(2-amino-6-fluorophenyl)-4-chloro-1-((S)-2,4-dimethylpiperazin-1-yl)-6,6a,7,8,9,10-hexahydro-12H-pyrazino[2,1-c]pyrido[3,4-f][1,4]oxazepin-12-one] |
| 46.9 | C=CC(=O)N1CCN2C(=O)c3c(N4CCN(C)C[C@@H]4C)nc(-c4c(O)cccc4Cl)c(Cl)c3OC[C@H]2C1 [Z452, (6aR)-8-acryloyl-4-chloro-3-(2-chloro-6-hydroxyphenyl)-1-((S)-2,4-dimethylpiperazin-1-yl)-6,6a,7,8,9,10-hexahydro-12H-pyrazino[2,1-c]pyrido[3,4-f][1,4]oxazepin-12-one] |
| 21 | C=CC(=O)N1CCN2C(=O)c3c(N4CC(O)CC4(C)C)nc(-c4c(O)cccc4F)c(Cl)c3OC[C@H]2C1 (stereo partly drawn) [Z50, (6aR)-8-amyloyl-4-chloro-3-(2-fluoro-6-hydroxyphenyl)-1-(4-hydroxy-2,2-dimethylpyrrolidin-1-yl)-6,6a,7,8,9,10-hexahydro-12H-pyrazino[2,1-c]pyrido[3,4-f][1,4]oxazepin-12-one] |
| 139 | C=CC(=O)N1CCN2C(=O)c3c(N4CCN(C)C[C@@H]4C)nc(-c4c(F)cccc4Cl)c(Cl)c3OC[C@H]2C1 [Z547, (6aR)-8-acryloyl-4-chloro-3-(2-chloro-6-fluorophenyl)-1-((S)-2,4-dimethylpiperazin-1-yl)-6,6a,7,8,9,10-hexahydro-12H-pyrazino[2,1-c]pyrido[3,4-f][1,4]oxazepin-12-one] |
| 19.8 | C=CC(=O)N1CCN2C(=O)c3c(N4CC(N5CCN(C)CC5)CC4(C)C)nc(-c4ccccc4F)c(Cl)c3OC[C@H]2C1 (stereo partly drawn) [Z454, (6aR)-8-acryloyl-4-chloro-1-(2,2-dimethyl-4-(4-methylpiperazin-1-yl)pyrrolidin-1-yl)-3-(2-fluorophenyl)-6,6a,7,8,9,10-hexahydro-12H-pyrazino[2,1-c]pyrido[3,4-f][1,4]oxazepin-12-one] |
| 113 | C=CC(=O)N1CCN2C(=O)c3c(N[C@H](C)c4ccccc4)nc(-c4c(O)cccc4F)c(Cl)c3OC[C@H]2C1 [Z28, (6aR)-8-acryloyl-4-chloro-3-(2-fluoro-6-hydroxyphenyl)-1-(((R)-1-phenylethyl)amino)-6,6a,7,8,9,10-hexahydro-12H-pyrazino[2,1-c]pyrido[3,4-f][1,4]oxazepin-12-one] |

The next lines start with the compound.

| SMILES | IC50 [nM] |
| --- | --- |
| C=CC(=O)N1CCN2C(=O)c3c(N4C[C@H](N5CC(F)(F)C5)CC4(C)C)nc(-c4ccccc4F)c(Cl)c3OC[C@H]2C1 (single isomer, unassigned) [Z525-1] | 365 |
| C=CC(=O)N1CCN2C(=O)c3c(N4C[C@H](N5CCN(C)CC5)CC4(C)C)nc(-c4ccccc4F)c(Cl)c3OC[C@H]2C1 (single isomer, unassigned) [Z454-2] | 35.5 |
| C=CC(=O)N1CCN2C(=O)c3c(N4C[C@@H](N5CCC5)CC4(C)C)nc(-c4ccccc4F)c(Cl)c3OC[C@H]2C1 (single isomer, unassigned) [Z471-1] | 73 |
| C=CC(=O)N1CCN2C(=O)c3c(N4C[C@H](N(C)CCO)CC4(C)C)nc(-c4ccccc4F)c(Cl)c3OC[C@H]2C1 (single isomer, unassigned) [Z658-2] | 142 |
| C=CC(=O)N1CCN2C(=O)c3c(N4CC(O)CC4(C)C)nc(-c4ccccc4Cl)c(F)c3OC[C@H]2C1 (stereo partly drawn) [Z414-1, (6aR)-8-acryloyl-3-(2-chlorophenyl)-4-fluoro-1-(4-hydroxy-2,2-dimethylpyrrolidin-1-yl)-6,6a,7,8,9,10-hexahydro-12H-pyrazino[2,1-c]pyrido[3,4-f][1,4]oxazepin-12-one] | 86.6 |
| C=CC(=O)N1CCN2C(=O)c3c(N4C[C@@H](N(C)C)CC4(C)C)nc(-c4ccccc4F)c(Cl)c3OC[C@H]2C1 [Z453-1, (R)-8-acryloyl-4-chloro-1-((S)-4-(dimethylamino)-2,2-dimethylpyrrolidin-1-yl)-3-(2-fluorophenyl)-6,6a,7,8,9,10-hexahydro-12H-pyrazino[2,1-c]pyrido[3,4-f][1,4]oxazepin-12-one] | 43.6 |
| C=CC(=O)N1CCN2C(=O)c3c(N4C[C@@H](N5CC(F)(F)C5)CC4(C)C)nc(-c4ccccc4F)c(Cl)c3OC[C@H]2C1 (single isomer, unassigned) [Z525-2] | 38.5 |
| C=CC(=O)N1CCN2C(=O)c3c(N4CCN(C)C[C@@H]4C)nc(-c4ccccc4F)c(Cl)c3OC[C@H]2C1 [Z407-1, (R)-8-acryloyl-4-chloro-1-((S)-2,4-dimethylpiperazin-1-yl)-3-(2-fluorophenyl)-6,6a,7,8,9,10-hexahydro-12H-pyrazino[2,1-c]pyrido[3,4-f][1,4]oxazepin-12-one] | 262 |
| C=CC(=O)N1CCN2C(=O)c3c(N4C[C@H](N(C)C)CC4(C)C)nc(-c4c(F)ccc(F)c4O)c(Cl)c3OC[C@H]2C1 (single isomer, unassigned) [Z475-2] | 79.3 |
| C=CC(=O)N1CCN2C(=O)c3c(N4C[C@H](N5CC(C#N)C5)CC4(C)C)nc(-c4ccccc4F)c(Cl)c3OC[C@H]2C1 (single isomer, unassigned) [Z637-1] | 343 |
| C=CC(=O)N1CCN2C(=O)c3c(N4C[C@@H](N5CC(OC)C5)CC4(C)C)nc(-c4ccccc4F)c(Cl)c3OC[C@H]2C1 [Z479-1, (R)-8-acryloyl-4-chloro-3-(2-fluorophenyl)-1-((S)-4-(3-methoxyazetidin-1-yl)-2,2-dimethylpyrrolidin-1-yl)-6,6a,7,8,9,10-hexahydro-12H-pyrazino[2,1-c]pyrido[3,4-f][1,4]oxazepin-12-one] | 65.2 |
| C=CC(=O)N1CCN2C(=O)c3c(N4C[C@@H](NCC(F)(F)F)CC4(C)C)nc(-c4ccccc4F)c(Cl)c3OC[C@H]2C1 (single isomer, unassigned) [Z662-1] | 23.4 |
| C=CC(=O)N1CCN2C(=O)c3c(N4C[C@H](N5CC(F)C5)CC4(C)C)nc(-c4ccccc4F)c(F)c3OC[C@H]2C1 [Z654-2, (R)-8-acryloyl-4-fluoro-1-((R)-4-(3-fluoroazetidin-1-yl)-2,2-dimethylpyrrolidin-1-yl)-3-(2-fluorophenyl)-6,6a,7,8,9,10-hexahydro-12H-pyrazino[2,1-c]pyrido[3,4-f][1,4]oxazepin-12-one] | 168 |
| C=CC(=O)N1CCN2C(=O)c3c(N4C[C@@H](N(C)CC(F)F)CC4(C)C)nc(-c4ccccc4F)c(Cl)c3OC[C@H]2C1 (single isomer, unassigned) [Z659-1] | 77.2 |
| C=CC(=O)N1CCN2C(=O)c3c(N4CC[C@@H](N(C)C)C4(C)C)nc(-c4ccccc4F)c(Cl)c3OC[C@H]2C1 [Z502-1, (6aR)-8-acryloyl-4-chloro-1-(3-(dimethylamino)-2,2-dimethylpyrrolidin-1-yl)-3-(2-fluorophenyl)-6,6a,7,8,9,10-hexahydro-12H-pyrazino[2,1-c]pyrido[3,4-f][1,4]oxazepin-12(6aH)-one] | 280 |
| C=CC(=O)N1CCN2C(=O)c3c(N4C[C@H](N5CC(C(F)(F)F)C5)CC4(C)C)nc(-c4ccccc4F)c(Cl)c3OC[C@H]2C1 (single isomer, unassigned) [Z608-1] | 610 |
| C=CC(=O)N1CCN2C(=O)c3c(N4C[C@@H](N(C)C)CC4(C)C)nc(-c4ccccc4)c(Cl)c3OC[C@H]2C1 (single isomer, unassigned) [Z655-1] | 406 |
| C=CC(=O)N1CCN2C(=O)c3c(N4C[C@@H](N(C)C)CC4(C)C)nc(-c4c(F)ccc(F)c4O)c(Cl)c3OC[C@H]2C1 [Z475-1, (6aR)-8-acryloyl-4-chloro-3-(3,6-difluoro-2-hydroxyphenyl)-1-((S)-4-(dimethylamino)-2,2-dimethylpyrrolidin-1-yl)-6,6a,7,8,9,10-hexahydro-12H-pyrazino[2,1-c]pyrido[3,4-f][1,4]oxazepin-12-one] | 22.5 |
| C=CC(=O)N1CCN2C(=O)c3c(N4CC(N5CCOCC5)CC4(C)C)nc(-c4ccccc4F)c(Cl)c3OC[C@H]2C1 (single isomer, unassigned) [Z468-1] | 35 |
| C=CC(=O)N1CCN2C(=O)c3c(N4CC(N(C)CC(F)F)CC4(C)C)nc(-c4ccccc4F)c(Cl)c3OCC2C1 (single isomer, unassigned) [Z659-2] | 9.3 |
| C=CC(=O)N1CCN2C(=O)c3c(N4C[C@@H](C(=O)O)CC4(C)C)nc(-c4c(O)cccc4F)c(Cl)c3OC[C@H]2C1 (single isomer, unassigned) [Z458-1] | 8.8 |
